Assay results reported in paper PMC4955201, “α-Glucosidase inhibitors from the bark of Mangifera mekongensis” (Chemistry Central Journal, 2016).
Where two headings read alike, the source gives them in different places.

Target: T1, α-Glucosidase (EC 3.2.1.20) from Saccharomyces cerevisiae (Saccharomyces cerevisiae, UniProt P53341)
T1 construct: purchased Sigma Chemical Co. (St. Louis, MO, USA)
Assay: biochemical
Assay type: biochemical
Conditions: for α-glucosidase inhibitory activity (in words): tested at 1 to 250 µM; for inhibition at 10 µM / inhibition at 25 µM / inhibition at 50 µM / inhibition at 100 µM / inhibition at 250 µM / inhibition at 1 µM / inhibition at 2.5 µM / inhibition at 5 µM: read-out: Inhibition (I %)
Protocol: α-Glucosidase (EC 3.2.1.20) from Saccharomyces cerevisiae (750 UN) and p-nitrophenyl-α-D-glucopyranoside were obtained from Sigma Chemical Co. (St. Louis, MO, USA). […] Silica gel 60, 40–63 µm (230–400 mesh ASTM), for column chromatography was purchased from Scharlau (Barcelona, Spain). Analytical and preparative TLC were carried out on precoated Kiesegel 60F254 or RP-18F254 plates (0.25 or 0.5 mm thickness) (Merck, Germany). Other chemicals were of the highest grade available.
The inhibitory activity of α-glucosidase was determined according to the modified method of Kim et al.. 3 mM p-nitrophenyl-α-D-glucopyranoside (25 μL) and 0.2 U/mL α-glucosidase (25 μL) in 0.01 M phosphate buffer (pH = 7.0) were added to the sample solution (625 μL) to start the reaction. Each reaction was carried out at 37 °C for 30 min and stopped by adding 0.1 M Na2CO3 (375 μL). […] One unit of α-glucosidase activity was defined as amount of enzyme liberating p-nitrophenol ([…]) per min.

[1] = isolated compounds, pH 7.0, 37 °C, 30 min, read-out: α-Glucosidase inhibitory activity IC50

T1 sequence (P53341 whole entry): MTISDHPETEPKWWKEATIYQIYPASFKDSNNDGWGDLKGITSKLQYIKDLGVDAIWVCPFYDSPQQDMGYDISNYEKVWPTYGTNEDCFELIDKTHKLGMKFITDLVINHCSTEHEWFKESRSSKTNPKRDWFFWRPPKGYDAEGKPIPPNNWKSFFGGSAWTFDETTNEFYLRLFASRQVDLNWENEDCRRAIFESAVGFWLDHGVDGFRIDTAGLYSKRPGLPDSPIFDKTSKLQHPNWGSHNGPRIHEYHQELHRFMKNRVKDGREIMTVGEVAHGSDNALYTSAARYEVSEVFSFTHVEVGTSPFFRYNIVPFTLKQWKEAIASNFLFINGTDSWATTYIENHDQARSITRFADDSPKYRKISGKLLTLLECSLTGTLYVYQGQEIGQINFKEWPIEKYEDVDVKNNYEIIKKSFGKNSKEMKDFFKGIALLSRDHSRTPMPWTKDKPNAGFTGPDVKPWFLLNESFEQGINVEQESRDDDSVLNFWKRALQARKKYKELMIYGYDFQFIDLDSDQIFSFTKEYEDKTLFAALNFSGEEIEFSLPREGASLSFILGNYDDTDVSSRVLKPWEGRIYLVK

SMILES	IC50 [1]	α-glucosidase inhibitory activity (in words)	inhibition at 10 µM	inhibition at 25 µM	inhibition at 50 µM	inhibition at 100 µM	IC50	inhibition at 250 µM	inhibition at 1 µM	inhibition at 2.5 µM	inhibition at 5 µM
CC[C@H](CC[C@@H](C)[C@H]1CC[C@H]2[C@@H]3CC(=O)C4CC(=O)CC[C@]4(C)[C@H]3CC[C@]12C)C(C)C (stereo partly shown) [Compound 4, stigmastane-3,6-dione]	> 250 µM	inactive	–	–	–	–	–	–	–	–	–
CCCCCCCCCCCCCCCC(=O)OC[C@H]1O[C@@H](O[C@H]2CC[C@@]3(C)C(=CC[C@H]4[C@@H]5CC[C@H]([C@H](C)CC[C@@H](CC)C(C)C)[C@@]5(C)CC[C@@H]43)C2)[C@H](O)[C@@H](O)[C@@H]1O [Compound 5, β-sitosteryl-3-O-β-D-glucopyranosyl-6′-O-palmitate]	21.1 µM	–	32.1 ± 2.3%	49.7 ± 3.1%	75.9 ± 2.6%	90.9 ± 1.4%	–	–	–	–	–
CC(=CCCC(C)C1CCC2(C)C3CCC4C(C)(C)C(O)CCC45CC35CCC12C)C(=O)O (stereo not shown) [Compound 9, ambolic acid]	–	–	–	–	15.9 ± 1.1%	32.2 ± 1%	112 µM	95.9 ± 1%	–	–	–
CCC(CCC(C)C1CCC2C3CC=C4CC(OC(=O)CCCCCCCC(=O)O)CCC4(C)C3CCC12C)C(C)C (stereo not drawn) [Compound 2, 3β-(8-carboxyoctanoyl)sitosterol]	2.5 µM	–	93.1 ± 1.2%	–	–	–	–	–	15.2 ± 1.2%	50.8 ± 1.1%	82.6 ± 1.4%
C[C@H]1O[C@H](O[C@H]2[C@H](O)[C@@H](O)[C@@H](O[C@H]3[C@H](O)[C@@H](O)C(O)O[C@@H]3CO)O[C@@H]2CO)[C@H](O)[C@@H](O)[C@@H]1N[C@H]1C=C(CO)[C@@H](O)[C@H](O)[C@H]1O (stereo partly shown) [Acarbose, reference compound]	–	–	–	–	9.8 ± 1.1%	21.2 ± 2.2%	–	59.8 ± 1.2%	–	–	–
CC[C@H](CC[C@@H](C)[C@H]1CC[C@H]2[C@@H]3CC=C4C[C@@H](O)CC[C@]4(C)[C@H]3CC[C@]12C)C(C)C [Compound 3, β-sitosterol]	> 250 µM	inactive	–	–	–	–	–	–	–	–	–
CCCCCCCCCCCCCCCCCCC(=O)OC1CCC2(C)C(=CCC3C2CCC2(C)C(C(C)CCC(CC)C(C)C)CCC32)C1 (stereo not drawn) [Compound 1, 3β-nonadecanoylsitosterol]	27.7 µM	–	24.4 ± 1.8%	38.6 ± 1.2%	67.7 ± 1.4%	91.8 ± 1.1%	–	–	–	–	–
CC(=CCCC(C)C1CCC2(C)C3CCC4C(C)(C)C(=O)CCC45CC35CCC12C)C(=O)O (stereo not shown) [Compound 8, ambonic acid]	–	–	87.5 ± 1%	–	–	–	1.2 µM	–	46.5 ± 1.1%	62.5 ± 1.1%	78.4 ± 1.6%
